Results from ChEMBL document CHEMBL3826939, “Discovery of Piperazinylquinoline Derivatives as Novel Respiratory Syncytial Virus Fusion Inhibitors” (ACS Med Chem Lett, 2016).
Active and inactive are the calls of the source. No cut-off for these calls is given here.

What was measured:
[1] = Antiviral activity against Respiratory syncytial virus long A infected in human Hep2 cells assessed as reduction in virus-induced cytopathic effect measured after 6 days by CCK8 assay; assay type: functional, cell-based, Respiratory syncytial virus type A; details: HEp-2, 144 h
[2] = Cytotoxicity against human Hep2 cells measured after 6 days by CCK8 assay; assay type: cell-based, HEp-2
[3] = test system: Respiratory syncytial virus; assay: Inhibition of Respiratory syncytial virus long A fusion protein expressed in expressed in human Flp-In T-REx-293 cells assessed as inhibition of cell-cell fusion at 1 to 100 nM measured after 3 days by microscopic analysis; assay type: cell-based
[4] = Intrinsic clearance in human liver microsomes; assay type: ADME; details: read-out: CLH
[5] = Intrinsic clearance in rat liver microsomes; assay type: ADME; details: read-out: CLH
[6] = Clearance in Wistar rat at […], iv by LC-MS/MS analysis; assay type: ADME, organism-based; details: in vivo
[7] = Volume of distribution at steady state in Wistar rat at […], iv by LC-MS/MS analysis; assay type: ADME, organism-based; details: in vivo, read-out: Vdss
[8] = Half life in Wistar rat at […], iv by LC-MS/MS analysis; assay type: ADME, organism-based; details: in vivo
[9] = Oral availability in Wistar rat at […] by LC-MS/MS analysis; assay type: ADME, organism-based; details: in vivo
[10] = Solubility of the compound by LYSA; assay type: physicochemical
[11] = Permeability of the compound by PAMPA assay; assay type: ADME; details: read-out: permeability
[12] = test system: Respiratory syncytial virus; assay: Antiviral activity against Respiratory syncytial virus long A infected in human Hep2 cells assessed as inhibition of viral replication measured after 3 days by plaque reduction assay; assay type: functional, organism-based; details: HEp-2, 72 h
[13] = test system: Respiratory syncytial virus; assay: Inhibition of Respiratory syncytial virus long A fusion protein expressed in human Flp-In T-REx-293 cells assessed as inhibition of cell-cell fusion at 0.1 to 100 nM measured after 3 days by microscopic analysis; assay type: cell-based

Structure (SMILES) | EC50 [1] [µM] | CC50 at 144 h [2] [µM] | also measured
NCCNc1cc(N2CCN(C(=O)C3(c4ccccc4)CCCC3)CC2)nc2ccccc12 | 3.82 | > 100 | 
COc1ccc(CC(=O)N2CCN(c3cc(NCCN)c4ccccc4n3)CC2)cc1 | 0.679 | > 100 | 
CCC(CC)(C(=O)N1CCN(c2cc(NCCN)c3ccccc3n2)CC1)c1ccccc1 | 0.624 | > 100 | 
CCC(C(=O)N1CCN(c2cc(NCCN)c3ccccc3n2)CC1)c1ccccc1 (stereo unspecified) | 0.556 | > 100 | 
NCCNc1cc(N2CCN(C(=O)Cc3cccc(Cl)c3)CC2)nc2ccccc12 | 0.066 | > 100 | 
NCCNc1cc(N2CCN(C(=O)Cc3cccc(C(F)(F)F)c3)CC2)nc2ccccc12 | 0.563 | > 100 | 
CS(=O)(=O)N1CCN(c2cc(NCCN)c3ccccc3n2)CC1 | 2.27 | > 100 | 
COc1cccc(CC(=O)N2CCN(c3cc(NCCN)c4ccccc4n3)CC2)c1 | 0.098 | > 100 | 
N#Cc1cccc(CC(=O)N2CCN(c3cc(NCCN)c4ccccc4n3)CC2)c1 | 0.225 | > 100 | 
NCCNc1cc(N2CCN(c3cccc(Cl)c3)CC2)nc2ccccc12 | 0.977 | 6.4 | 
Cc1ccc(CC(=O)N2CCN(c3cc(NCCN)c4ccccc4n3)CC2)cc1 | 0.142 | > 100 | 
CC(=O)N1CCN(c2cc(NCCN)c3ccccc3n2)CC1 | 0.317 | > 100 | 
NCCNc1cc(N2CCN(c3ccccc3Cl)CC2)nc2ccccc12 | 2.01 | 20.8 | 
NCCNc1cc(N2CCN(C(=O)C3(c4ccccc4)CC3)CC2)nc2ccccc12 | 0.017 | > 100 | 
NCC(O)CNc1cc(N2CCC(c3ccccc3)CC2)nc2ccccc12 (stereo unspecified) | 0.759 | 20.8 | 
CC(C)(C(=O)N1CCN(c2cc(NCCN)c3c(Cl)cccc3n2)CC1)c1ccccc1 | 7.96 | 20.8 | 
NCCNc1cc(N2CCN(C(=O)C3CCCCC3)CC2)nc2ccccc12 | 9.24 | > 100 | 
CC(C)CC(=O)N1CCN(c2cc(NCCN)c3ccccc3n2)CC1 | 1.88 | > 100 | 
CC(C)(C(=O)N1CCN(c2cc(NCCO)c3ccccc3n2)CC1)c1ccccc1 | 0.322 | > 100 | 
NCCNc1cc(N2CCN(C(=O)Cc3ccc(F)cc3)CC2)nc2ccccc12 | 0.095 | > 100 | 
Cc1ccccc1CC(=O)N1CCN(c2cc(NCCN)c3ccccc3n2)CC1 | 0.029 | > 100 | 
CNCCNc1cc(N2CCN(C(=O)C(C)(C)c3ccccc3)CC2)nc2ccccc12 | 0.033 | > 100 | inhibition [3]: Active; CLint scaled [4]: 5.7 mL/min/kg; CLint scaled [5]: 18 mL/min/kg; clearance [6]: 143 mL/min/kg; Vd [7]: 67.9 L/kg; half-life [8]: 7.3 h; bioavailability [9]: 41%; solubility [10]: > 400 µg/mL; Papp [11]: 1.37 ×10⁻⁶ cm/s
NCCNc1cc(N2CCN(C(=O)Cc3ccc(Cl)c(Cl)c3)CC2)nc2ccccc12 | 0.22 | 6.68 | 

Structure (SMILES) | EC50 [1] [µM] | CC50 at 144 h [2] [µM] | also measured
NCCNc1cc(N2CCN(C(=O)Cc3cc(F)cc(F)c3)CC2)nc2ccccc12 | 0.264 | > 100 | 
CC(C)(C(=O)N1CCN(c2cc(NCCN)c3cc(Cl)ccc3n2)CC1)c1ccccc1 | 0.099 | 20.8 | 
NCCNc1cc(N2CCN(C(=O)Cc3cccc(F)c3)CC2)nc2ccccc12 | 0.08 | > 100 | 
CC(C)C(=O)N1CCN(c2cc(NCCN)c3ccccc3n2)CC1 | 0.847 | > 100 | 
Cc1cccc(CC(=O)N2CCN(c3cc(NCCN)c4ccccc4n3)CC2)c1 | 0.059 | > 100 | 
CCC(=O)N1CCN(c2cc(NCCN)c3ccccc3n2)CC1 | 3.09 | > 100 | 
NCCNc1cc(N2CCN(C(=O)Cc3ccccc3)CC2)nc2ccccc12 | 0.079 | > 100 | 
NCCNc1cc(N2CCN(C(=O)CCc3ccccc3)CC2)nc2ccccc12 | 0.464 | > 100 | 
NCCNc1cc(N2CCN(C(=O)c3ccccc3)CC2)nc2ccccc12 | 0.57 | > 100 | 
NCCNc1cc(N2CCN(C(=O)Cc3ccccc3F)CC2)nc2ccccc12 | 0.089 | > 100 | 
CC(C(=O)N1CCN(c2cc(NCCN)c3ccccc3n2)CC1)c1ccccc1 (stereo unspecified) | 0.091 | > 100 | 
CC(C)(C(=O)N1CCN(c2cc(NCCN)c3ccc(Cl)cc3n2)CC1)c1ccccc1 | 2.19 | 20.9 | 
CN(C)CCNc1cc(N2CCN(C(=O)C(C)(C)c3ccccc3)CC2)nc2ccccc12 | 0.929 | 55.2 | 
NCCNc1cc(N2CCN(S(=O)(=O)c3ccccc3)CC2)nc2ccccc12 | 1.17 | 20.5 | 
NCCNc1cc(N2CCN(C(=O)C3(c4ccccc4)CCC3)CC2)nc2ccccc12 | 0.086 | > 100 | 
NCCNc1cc(N2CCN(C(=O)Cc3ccccc3Cl)CC2)nc2ccccc12 | 0.077 | > 100 | 
NCCNc1cc(N2CCN(c3ccc(Cl)cc3)CC2)nc2ccccc12 | > 100 | 6.6 | 
CC(=O)NCCNc1cc(N2CCN(C(=O)C(C)(C)c3ccccc3)CC2)nc2ccccc12 | 15.6 | > 100 | 
NCCNc1cc(N2CCN(C(=O)Cc3ccc(Cl)cc3)CC2)nc2ccccc12 | 0.058 | > 100 | 
COc1ccccc1CC(=O)N1CCN(c2cc(NCCN)c3ccccc3n2)CC1 | 0.056 | > 100 | 
NCCNc1cc(N2CCN(C(=O)Cc3ccc(F)c(F)c3)CC2)nc2ccccc12 | 0.255 | > 100 | 
NCCNc1cc(N2CCN(c3ccccc3)CC2)nc2ccccc12 | 0.865 | 20.8 | 
CC(C)(C(=O)N1CCN(c2cc(NCCN)c3ccccc3n2)CC1)c1ccccc1 | 0.028 | > 100 | EC50 [12]: < 0.1 µM; inhibition [13]: Active; CLint scaled [4]: 8.4 mL/min/kg; CLint scaled [5]: 16.6 mL/min/kg; clearance [6]: 222 mL/min/kg; Vd [7]: 36.9 L/kg; half-life [8]: 3 h; bioavailability [9]: 57%; solubility [10]: > 400 µg/mL; Papp [11]: 0.74 ×10⁻⁶ cm/s
